In article PMC6270516 (Molecules, 2013) one finds solubility and melting point data, which are given here for 33 compounds.

The nature of series [1]: physchem. Conditions: simulated gastric fluid.
The nature of series [2]: physchem. Conditions: fassgf or other biorelevant.

For orientation: solubility means how much of the substance goes into solution per volume. A higher solubility goes with much dissolved substance. Usually melting point stands for the temperature of the solid-liquid transition.

≈ marks a conversion by molar mass, not a printed value. Bounds are passed on as bounds.

Regarding `CN1c2ccccc2C(=O)N2CCc3c(n(CCCCCBr)c4ccccc34)C21` (centres unmarked) [2-26, N13-(5-Bromopentyl)evodiamine], the solubility in series [1] is 67.8 µg/mL (≈ 150 µM); in series [2], 132 µg/mL (≈ 292 µM).

The compound `CN1c2ccccc2C(=O)N2CCc3c(n(CCCCl)c4ccccc34)C21` (centres unmarked) [2-9, N13-(3-Chloropropyl)evodiamine] displayed a melting point of 118 to 120 °C. This compound also registered a solubility in series [1] of 60 to 120 µg/mL (≈ 158 to 316 µM). The compound further had a solubility in series [2] of 322 µg/mL (≈ 848 µM).

`CN1c2ccccc2C(=O)N2CCc3c(n(CC4CO4)c4ccccc34)C21` (centres unmarked) [2-24, N13-((Oxiran-2-yl)methyl)evodiamine] showed a melting point of 189 to 191 °C. The concentration in solution in series [1] (solubility) was 20 µg/mL (≈ 55.6 µM). The solubility in series [2] was determined as 55.7 µg/mL (≈ 155 µM).

For `CCOC(=O)CCCCn1c2c(c3ccccc31)CCN1C(=O)c3ccccc3N(C)C21` (centres unmarked) [2-28, N13-(4-(Ethoxycarbonyl)butyl)evodiamine], the melting point fell in the range of 251 to 253 °C. Also, the solubility in series [1] is 89.4 µg/mL (≈ 207 µM). The solubility in series [2] was found to be 166 µg/mL (≈ 384 µM).

In turn, `CCCCCn1c2c(c3ccccc31)CCN1C(=O)c3ccccc3N(C)C21` (centres unmarked) [2-3, N13-Pentylevodiamine] displayed a melting point of 143 to 145 °C. In series [1], this compound came in with a solubility of 60 to 120 µg/mL (≈ 161 to 321 µM). Further, the solubility in series [2] was 322 µg/mL (≈ 862 µM).

Compound `CC(C)CCn1c2c(c3ccccc31)CCN1C(=O)c3ccccc3N(C)C21` (centres unmarked) [2-8, N13-Isopentylevodiamine] came in with a melting point of 108 to 110 °C. In series [1], this compound yielded a solubility above 150 µg/mL. Also, the solubility in series [2] was above 373 µg/mL.

On to `COCCOCCn1c2c(c3ccccc31)CCN1C(=O)c3ccccc3N(C)C21` (centres unmarked) [2-17, N13-(2-(2-Methoxyethoxy)ethyl)evodiamine], for which the melting point was in the range of 116 to 118 °C. Besides, in series [1], the solubility was 60 µg/mL (≈ 148 µM). In series [2], this compound yielded a solubility of 148 µg/mL (≈ 365 µM).

Consider `CN1c2ccccc2C(=O)N2CCc3c(n(CCCC(=O)O)c4ccccc34)C21` (centres unmarked) [compound 5, 4-(Evodiamin-N13-yl)butyric acid], for which the melting point was 234 °C (dec.). Also, the solubility in series [1] is 60 µg/mL (≈ 154 µM). Besides, the concentration in solution in series [2] (solubility) was 154 µg/mL (≈ 395 µM).

`CC(=O)OCCn1c2c(c3ccccc31)CCN1C(=O)c3ccccc3N(C)C21` (centres unmarked) [2-19, N13-(2-Acetoxyethyl)evodiamine] yielded a melting point of 211 to 213 °C. In series [1], the solubility is above 120 µg/mL. This compound also yielded a solubility in series [2] of 308 µg/mL (≈ 791 µM).

As to `CC(C)=CCn1c2c(c3ccccc31)CCN1C(=O)c3ccccc3N(C)C21` (centres unmarked) [2-4, N13-(3-Methyl-2-butenyl)evodiamine], the solubility in series [1] was 60 µg/mL (≈ 162 µM); in series [2], 162 µg/mL (≈ 436 µM).

`CN1c2ccccc2C(=O)N2CCc3c(n(CCCCCCn4c5c(c6ccccc64)CCN4C(=O)c6ccccc6N(C)C54)c4ccccc34)C21` (centres unmarked) [3-2, N1,6-Bis-(evodiamin-N13-yl)hexane] displayed a melting point of 131 to 133 °C. Further, in series [1], the solubility was above 120 µg/mL. In addition, the solubility in series [2] was above 320 µg/mL.

`CCCCOCCn1c2c(c3ccccc31)CCN1C(=O)c3ccccc3N(C)C21` (centres unmarked) [2-15, N13-(2-Butoxyethyl)evodiamine] had a melting point of 68 to 70 °C. This compound displayed a solubility in series [1] of 30 to 120 µg/mL (≈ 74.3 to 297 µM). The solubility in series [2] fell in the range of 74.4 to 298 µg/mL (≈ 184 to 738 µM).

The compound `CN1c2ccccc2C(=O)N2CCc3c(n(CCCc4ccccc4)c4ccccc34)C21` (centres unmarked) [2-6, N13-(3-Phenylpropyl)evodiamine] registered a melting point of 158 to 160 °C. The compound also had a solubility in series [1] of 60 µg/mL (≈ 142 µM). The same compound returned a solubility in series [2] of 142 µg/mL (≈ 338 µM).

In the case of `CCCCCCCCn1c2c(c3ccccc31)CCN1C(=O)c3ccccc3N(C)C21` (centres unmarked) [2-5, N13-Octylevodiamine], the melting point lay in the range of 65 to 67 °C. Further, the solubility in series [1] was 30 µg/mL (≈ 72.2 µM). The compound further yielded a solubility in series [2] of 72.3 µg/mL (≈ 174 µM).

In the case of `CON=CCn1c2c(c3ccccc31)CCN1C(=O)c3ccccc3N(C)C21` (centres unmarked) [6-2, 2-(Evodiamin-N13-yl)acetaldehyde O-methyl oxime], the melting point was 216 °C (dec.). The solubility in series [1] is 60 µg/mL (≈ 160 µM). Further, the concentration in solution in series [2] (solubility) was 160 µg/mL (≈ 428 µM).

Regarding `CN1c2ccccc2C(=O)N2CCc3c(n(CC=NO)c4ccccc34)C21` (centres unmarked) [6-1, 2-(Evodiamin-N13-yl)acetaldehyde oxime], the solubility in series [1] was 60 µg/mL (≈ 166 µM); in series [2], 167 µg/mL (≈ 463 µM).

`COCCn1c2c(c3ccccc31)CCN1C(=O)c3ccccc3N(C)C21` (centres unmarked) [2-14, N13-(2-Methoxyethyl)evodiamine] displayed a melting point of 166 to 168 °C. In series [1], this compound returned a solubility of 15 to 30 µg/mL (≈ 41.5 to 83 µM). This compound also gave a solubility in series [2] of 41.6 to 83.1 µg/mL (≈ 115 to 230 µM).

Take `CN1c2ccccc2C(=O)N2CCc3c(n(CC(=O)c4ccccc4)c4ccccc34)C21` (centres unmarked) [2-13, N13-(Benzonylmethyl)evodiamine]: the melting point was 245 °C (dec.). Also, the solubility in series [1] is 30 to 60 µg/mL (≈ 71.2 to 142 µM). In series [2], this compound returned a solubility of 73.7 to 147 µg/mL (≈ 175 to 349 µM).

For `CN1c2ccccc2C(=O)N2CCc3c(n(CCCCCl)c4ccccc34)C21` (centres unmarked) [2-11, N13-(4-Chlorobutyl)evodiamine], the melting point lay within 127 to 129 °C. The compound also returned a solubility in series [1] of 98 µg/mL (≈ 249 µM). Besides, the solubility in series [2] is 273 µg/mL (≈ 693 µM).

Take `CN1c2ccccc2C(=O)N2CCc3c(n(CCCCCn4c5c(c6ccccc64)CCN4C(=O)c6ccccc6N(C)C54)c4ccccc34)C21` (centres unmarked) [3-1, 1,5-Bis-(evodiamin-N13-yl)pentane]: the melting point is 217 to 219 °C. The solubility in series [1] is above 120 µg/mL. Further, the solubility in series [2] was above 350 µg/mL.

For the compound `CN1c2ccccc2C(=O)N2CCc3c(n(CCO)c4ccccc34)C21` (centres unmarked) [4-1, N13-(2-Hyroxyethyl)evodiamine], the melting point is 166 to 168 °C. The same compound came in with a solubility in series [1] above 220 µg/mL. Moreover, in series [2], the concentration in solution (solubility) came to 320 µg/mL (≈ 921 µM).

In the case of `CCOC(=O)CCn1c2c(c3ccccc31)CCN1C(=O)c3ccccc3N(C)C21` (centres unmarked) [2-22, N13-(2-(Ethoxycarbonyl)ethyl)evodiamine], the results for the solubility in series [1] and in series [2] were above 120 µg/mL and 265 µg/mL (≈ 657 µM), respectively.

Take `CC(=O)OCCCn1c2c(c3ccccc31)CCN1C(=O)c3ccccc3N(C)C21` (centres unmarked) [2-20, N13-(3-Acetoxypropyl)evodiamine]: the solubility was above 120 µg/mL in series [1] and 278 µg/mL (≈ 689 µM) in series [2].

As to `CCCCn1c2c(c3ccccc31)CCN1C(=O)c3ccccc3N(C)C21` (centres unmarked) [2-2, N13-Butylevodiamine], the melting point fell in the range of 141 to 143 °C. The same compound displayed a solubility in series [1] above 120 µg/mL. Also, the solubility in series [2] was above 334 µg/mL.

Take `CCOC(=O)CCCn1c2c(c3ccccc31)CCN1C(=O)c3ccccc3N(C)C21` (centres unmarked) [2-23, N13-(3-(Ethoxycarbonyl)propyl)evodiamine]: the melting point lay within 265 to 268 °C. The solubility in series [1] was 30 µg/mL (≈ 71.9 µM). This compound also came in with a solubility in series [2] of 71.9 µg/mL (≈ 172 µM).

Compound `CN1c2ccccc2C(=O)N2CCc3c(n(CCOCCOCCCl)c4ccccc34)C21` (centres unmarked) gave a melting point of 126 to 128 °C.

Take `CN1c2ccccc2C(=O)N2CCc3c(n(CC=O)c4ccccc34)C21` (centres unmarked) [compound 6, 2-(Evodiamin-N13-yl)acetaldehyde]: the solubility in series [1] is 60 µg/mL (≈ 174 µM); in series [2] it was 174 µg/mL (≈ 503 µM).

Turning to `CCOC(Cn1c2c(c3ccccc31)CCN1C(=O)c3ccccc3N(C)C21)OCC` (centres unmarked) [2-18, N13-(2,2-Diethoxyethyl)evodiamine], the melting point lay within 117 to 119 °C. Besides, the solubility in series [1] is above 120 µg/mL. The compound also displayed a solubility in series [2] of 286 µg/mL (≈ 682 µM).

`CCCOC(=O)Cn1c2c(c3ccccc31)CCN1C(=O)c3ccccc3N(C)C21` (centres unmarked) [2-27, N13-(Propoxycarbonylmethyl)evodiamine]: the melting point lay within 168 to 170 °C. This compound also came in with a solubility in series [1] of 72.9 µg/mL (≈ 181 µM). For the same compound, the concentration in solution in series [2] (solubility) came to 132 µg/mL (≈ 326 µM).

With `CCC(=O)OCCn1c2c(c3ccccc31)CCN1C(=O)c3ccccc3N(C)C21` (centres unmarked) [2-21, N13-(2-Propionyloxyethyl)evodiamine], the melting point was 205 to 206 °C. The solubility in series [1] was above 120 µg/mL. In series [2], this compound had a solubility above 308 µg/mL.

In the case of `CN1c2ccccc2C(=O)N2CCc3c(n(CCCBr)c4ccccc34)C21` (centres unmarked), the melting point lay within 130 to 132 °C.

For `CC(C)Cn1c2c(c3ccccc31)CCN1C(=O)c3ccccc3N(C)C21` (centres unmarked) [2-7, N13-Isobutylevodiamine], the melting point is 154 to 156 °C. The same compound gave a solubility in series [1] above 110 µg/mL. Besides, the solubility in series [2] was above 310 µg/mL.

Compound `C=CCn1c2c(c3ccccc31)CCN1C(=O)c3ccccc3N(C)C21` (centres unmarked) [2-1, N13-Allylevodiamine] yielded a melting point of 163 to 165 °C. Also, the concentration in solution in series [1] (solubility) was 60 µg/mL (≈ 175 µM). In series [2], this compound registered a solubility of 175 µg/mL (≈ 510 µM).
